Assay [1] deals with T1, NAMPT (Homo sapiens, UniProt P43490). The assay is described as follows: Time-Resolved Fluorescence Resonance Energy Transfer (TR-FRET) Binding Assay of NAMPT. The note with it: 6.8 nM NAMPT, 200 nM probe, equilibrated 3 hours, no substrates. The method, boiled down: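 IC50s come from four-parameter logistic fits of control-normalized Em520/Em495 TR-FRET ratios (Ex 337 nm) against compound concentration. Before reading, enzyme, probe, antibody and compound equilibrated for 3 h at room temperature.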
T1 sequence (P43490 whole entry): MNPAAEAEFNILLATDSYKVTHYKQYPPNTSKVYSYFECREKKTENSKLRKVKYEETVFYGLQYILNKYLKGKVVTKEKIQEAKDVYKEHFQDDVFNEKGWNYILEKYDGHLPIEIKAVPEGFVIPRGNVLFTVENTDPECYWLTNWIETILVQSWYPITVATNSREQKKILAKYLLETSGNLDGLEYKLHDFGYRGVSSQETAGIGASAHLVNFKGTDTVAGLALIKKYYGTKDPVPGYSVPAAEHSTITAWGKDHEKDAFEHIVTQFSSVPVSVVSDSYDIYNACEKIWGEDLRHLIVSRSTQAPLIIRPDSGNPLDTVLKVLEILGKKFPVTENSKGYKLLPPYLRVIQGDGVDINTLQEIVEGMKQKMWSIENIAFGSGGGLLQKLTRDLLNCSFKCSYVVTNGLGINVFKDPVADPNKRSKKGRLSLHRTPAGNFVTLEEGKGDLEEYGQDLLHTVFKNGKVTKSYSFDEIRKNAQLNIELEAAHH
On the technique in general: Time-resolved FRET reads energy transfer from a long-lived donor to a nearby acceptor.

For assay [2], the target named is T1, NAMPT. The assay is described as follows: TR-FRET Binding Assay of NAMPT with PRPP. The note with it: 2 nM NAMPT, 2 nM probe, 200 µM PRPP and 2.5 mM ATP, equilibrated 16 hours. The method, boiled down:
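Substrates present: PRPP at 200 µM and ATP at 2.5 mM, final, alongside 2 nM enzyme, 2 nM tracer and 1 nM terbium anti-His donor in 2% DMSO. A 16-hour equilibration preceded the time-resolved FRET read, allowing compounds to be enzymatically modified.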

Assay [3] relates to PC3 cells. The assay is described as follows: NAMPT Cell Proliferation Assay (Cell Titer Glo). Format: cell-based. The note with it: Homo sapiens, PC-3, 120 h, incubated 5 days, cell viability. The method, boiled down: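 Viability measured by Cell Titer Glo luminescence after 5-day exposure of attached PC3 cells to compound, dosed as 10-fold serial dilutions ([…]) in RPMI/10% FBS at 37 °C and 5% CO2. Percent inhibition fitted to sigmoidal dose-response curves for IC50.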
For orientation: Cellular ATP, detected with luciferase, serves as a proxy for viable cell number.

As usually defined, the IC50 is the concentration at which inhibition is half-maximal. The low end stands for greater potency in that assay, the high end for weaker potency in that assay.

On to `CC(C)(C)CCN1CCC(c2ccc(NC(=O)N3CC(c4cccnc4)C3)cc2)CC1` [Example 233, N-{4-[1-(3,3-dimethylbutyl)piperidin-4-yl]phenyl}-3-(pyridin-3-yl)azetidine-1-carboxamide], for which the values for the IC50 in assay [1], in assay [2] and in assay [3] were 653 nM, 0.335 nM and 970 nM, respectively.

Regarding `O=C(CCN1CCOCC1)N1CCC(Oc2ccc(NC(=O)N3CC(c4cccnc4)C3)cc2)CC1` [Example 37, N-[4-({1-[3-(morpholin-4-yl)propanoyl]piperidin-4-yl}oxy)phenyl]-3-(pyridin-3-yl)azetidine-1-carboxamide], the IC50 was determined as 85.4 nM in assay [1], 0.174 nM in assay [2] and 72.9 nM in assay [3].

For `O=C(Nc1ccc(C2=CCN(C(=O)[C@H]3CCCO3)CC2)cc1)N1CC(c2cccnc2)C1` [Example 10, 3-(pyridine-3-yl)-N-(4-{1-[(2R)-tetrahydrofuran-2-ylcarbonyl]-1,2,3,6-tetrahydropyridin-4-yl}phenyl)azetidine-1-carboxamide], the IC50 in assay [1] was 41.5 nM; in assay [2], 0.25 nM; in assay [3], 38.9 nM.

For `CC(C)C(C)C(=O)N1CCC(c2ccc(NC(=O)N3CC(c4cccnc4)C3)cc2)CC1` (stereo not drawn) [Example 197, N-{4-[1-(2,3-dimethylbutanoyl)piperidin-4-yl]phenyl}-3-(pyridin-3-yl)azetidine-1-carboxamide], the IC50 in assay [1] came to 17.8 nM; in assay [2] it was 0.505 nM; in assay [3], 22.7 nM.

As to `CCOCC(=O)N1CCC(c2ccc(NC(=O)N3CC(c4cccnc4)C3)cc2)CC1` [Example 173, N-{4-[1-(ethoxyacetyl)piperidin-4-yl]phenyl}-3-(pyridin-3-yl)azetidine-1-carboxamide], the IC50 amounted to 90.4 nM in assay [1], 0.393 nM in assay [2] and 56.4 nM in assay [3].

Consider `O=C(Nc1ccc(OC2CCN(C(=O)[C@@H]3CCCO3)CC2)cc1)N1CC(c2cccnc2)C1` [Example 31, 3-(pyridin-3-yl)-N-[4-({1-[(2S)-tetrahydrofuran-2-ylcarbonyl]piperidin-4-yl}oxy)phenyl]azetidine-1-carboxamide], for which the IC50 in assay [1] was 40.6 nM; in assay [2], 0.33 nM; in assay [3] it was 38.9 nM.

In the case of `O=C(CC1CCOCC1)N1CC(c2ccc(NC(=O)N3CC(c4cccnc4)C3)cc2)C1` [Example 100, 3-(pyridin-3-yl)-N-{4-[1-(tetrahydro-2H-pyran-4-ylacetyl)azetidin-3-yl]phenyl}azetidine-1-carboxamide], the IC50 was 108 nM in assay [1], 0.309 nM in assay [2] and 27.3 nM in assay [3].

With `O=C(CCN1CCCC1)N1CCC(Oc2ccc(NC(=O)N3CC(c4cccnc4)C3)cc2)CC1` [Example 39, 3-(pyridin-3-yl)-N-[4-({1-[3-(pyrrolidin-1-yl)propanoyl]piperidin-4-yl}oxy)phenyl]azetidine-1-carboxamide], the IC50 in assay [1] is 90.5 nM; in assay [2], 0.338 nM; in assay [3] it was 115 nM.

With `O=C(CC1CC1)N1CC=C(c2ccc(NC(=O)N3CC(c4cccnc4)C3)cc2)CC1` [Example 26, N-{4-[1-(cyclopropylacetyl)-1,2,3,6-tetrahydropyridin-4-yl]phenyl}-3-(pyridin-3-yl)azetidine-1-carboxamide], the IC50 was determined as 73.6 nM in assay [1], 0.724 nM in assay [2] and 172 nM in assay [3].

Consider `CC(C)(C)OC(=O)N1CCC(c2ccc(NC(=O)N3CC(c4cnccc4Cl)C3)cc2)CC1` [Example 113, tert-butyl 4-[4-({[3-(4-chloropyridin-3-yl)azetidin-1-yl]carbonyl}amino)phenyl]piperidine-1-carboxylate], for which the IC50 in assay [1] worked out at 75.8 nM; in assay [2], 14.7 nM; in assay [3], 113 nM.

As to `COCCOCC(=O)N1CC[C@@H](Oc2ccc(NC(=O)N3CC(c4cccnc4)C3)cc2)C1` [Example 320, N-[4-({(3R)-1-[(2-methoxyethoxy)acetyl]pyrrolidin-3-yl}oxy)phenyl]-3-(pyridin-3-yl)azetidine-1-carboxamide], the values for the IC50 in assay [1], in assay [2] and in assay [3] were 208 nM, 0.407 nM and 155 nM, respectively.

As to `CC(C)(C)C(=O)N1CC(c2ccc(NC(=O)N3CC(c4cccnc4)C3)cc2)C1` [Example 206, N-{4-[1-(2,2-dimethylpropanoyl)azetidin-3-yl]phenyl}-3-(pyridin-3-yl)azetidine-1-carboxamide], the IC50 in assay [1] turned out to be 49.1 nM; in assay [2] it was 0.26 nM; in assay [3], 63.4 nM.

As to `CCC(C)CC(=O)N1CCC(Oc2ccc(NC(=O)N3CC(c4cccnc4)C3)cc2)CC1` (stereo not drawn) [Example 41, N-(4-{[1-(3-methylpentanoyl)piperidin-4-yl]oxy}phenyl)-3-(pyridin-3-yl)azetidine-1-carboxamide], the figures for the IC50 in assay [1], in assay [2] and in assay [3] were 76.8 nM, 0.448 nM and 69.8 nM, respectively.

On to `CC[C@H](C)C(=O)N1CC(Oc2ccc(NC(=O)N3CC(c4cccnc4)C3)cc2)C1` [Example 1, N-[4-({1-[(2S)-2-methylbutanoyl]azetidin-3-yl}oxy)phenyl]-3-(pyridin-3-yl)azetidine-1-carboxamide], for which the IC50 in assay [1] was 24.9 nM; in assay [2], 0.873 nM; in assay [3], 11.7 nM.

Take `Cc1ccsc1C(=O)N1CCC(c2ccc(NC(=O)N3CC(c4cccnc4)C3)cc2)CC1` [Example 186, N-(4-{1-[(3-methylthiophen-2-yl)carbonyl]piperidin-4-yl}phenyl)-3-(pyridin-3-yl)azetidine-1-carboxamide]: the IC50 in assay [1] is 2.93 nM; in assay [2] it was 0.345 nM; in assay [3], 3.45 nM.

Turning to `CN(C)CCC(=O)N1CC(Oc2ccc(NC(=O)N3CC(c4cccnc4)C3)cc2)C1` [Example 150, N-(4-{[1-(N,N-dimethyl-beta-alanyl)azetidin-3-yl]oxy}phenyl)-3-(pyridin-3-yl)azetidine-1-carboxamide], the half-maximal inhibitory concentration (IC50) in assay [1] came out at 435 nM; in assay [2], 2.85 nM; in assay [3] it was 1050 nM.

For the molecule `O=C(CCC(F)(F)F)N1CC(Oc2ccc(NC(=O)N3CC(c4cccnc4)C3)cc2)C1` [Example 126, 3-(pyridin-3-yl)-N-(4-{[1-(4,4,4-trifluorobutanoyl)azetidin-3-yl]oxy}phenyl)azetidine-1-carboxamide], the results for the IC50 in assay [1], in assay [2] and in assay [3] were 14.4 nM, 0.401 nM and 7.38 nM, respectively.

For the molecule `O=C(Nc1ccc(C2CCN(C(=O)c3ccsc3)CC2)cc1)N1CC(c2cccnc2)C1` [Example 185, 3-(pyridin-3-yl)-N-{4-[1-(thiophen-3-ylcarbonyl)piperidin-4-yl]phenyl}azetidine-1-carboxamide], the IC50 in assay [1] was found to be 3.23 nM; in assay [2] it was 0.228 nM; in assay [3] it was 9.18 nM.

Consider `CC(C)CC(=O)N1CCC(c2ccc(NC(=O)N3CC(c4cccnc4)C3)cc2)CC1` [Example 174, N-{4-[1-(3-methylbutanoyl)piperidin-4-yl]phenyl}-3-(pyridin-3-yl)azetidine-1-carboxamide], for which the IC50 in assay [1] is 20.8 nM; in assay [2], 0.325 nM; in assay [3] it was 24.4 nM.

With `CCC(C)CC(=O)N1CC(c2ccc(NC(=O)N3CC(c4cccnc4)C3)cc2)C1` (stereo not drawn) [Example 202, N-{4-[1-(3-methylpentanoyl)azetidin-3-yl]phenyl}-3-(pyridin-3-yl)azetidine-1-carboxamide], the IC50 turned out to be 51.1 nM in assay [1], 0.327 nM in assay [2] and 65.5 nM in assay [3].

Turning to `O=C(Nc1ccc(O[C@@H]2CCN(C(=O)c3ccoc3)C2)cc1)N1CC(c2cccnc2)C1` [Example 303, N-(4-{[(3R)-1-(furan-3-ylcarbonyl)pyrrolidin-3-yl]oxy}phenyl)-3-(pyridin-3-yl)azetidine-1-carboxamide], the half-maximal inhibitory concentration (IC50) amounted to 40.5 nM in assay [1], 0.595 nM in assay [2] and 13.5 nM in assay [3].

As to `CCCCC(=O)N1CCC(c2ccc(NC(=O)N3CC(c4cccnc4)C3)cc2)C1` (stereo not drawn) [Example 258, N-[4-(1-pentanoylpyrrolidin-3-yl)phenyl]-3-(pyridin-3-yl)azetidine-1-carboxamide], the results for the IC50 in assay [1], in assay [2] and in assay [3] were 52.4 nM, 0.359 nM and 68.3 nM, respectively.

As for `CCC(C)(C)C(=O)N1CC(c2ccc(NC(=O)N3CC(c4cccnc4)C3)cc2)C1` [Example 204, N-{4-[1-(2,2-dimethylbutanoyl)azetidin-3-yl]phenyl}-3-(pyridin-3-yl)azetidine-1-carboxamide], the IC50 in assay [1] came out at 48.6 nM; in assay [2] it was 0.349 nM; in assay [3] it was 60.4 nM.

For `CC[C@H](C)C(=O)N1CC(c2ccc(NC(=O)N3CC(c4cccnc4)C3)cc2)C1` [Example 110, N-(4-{1-[(2S)-2-methylbutanoyl]azetidin-3-yl}phenyl)-3-(pyridin-3-yl)azetidine-1-carboxamide], the IC50 in assay [1] stood at 35.3 nM; in assay [2], 0.421 nM; in assay [3], 11.8 nM.

With `Cc1ccc(C(=O)N2CCC(c3ccc(NC(=O)N4CC(c5cccnc5)C4)cc3)C2)s1` (stereo not drawn) [Example 283, N-(4-{1-[(5-methylthiophen-2-yl)carbonyl]pyrrolidin-3-yl}phenyl)-3-(pyridin-3-yl)azetidine-1-carboxamide], the IC50 in assay [1] came out at 33.7 nM; in assay [2], 0.266 nM; in assay [3], 61.7 nM.
